Values quoted from earlier work in PubChem BioAssay AID1259409 (Chemical Carcinogenesis Research Information System (CCRIS), 2018).

System: rodent chemically induced tumor inhibition, incidence and multiplicity
Assay: CCRIS tumor inhibitor studies
Conditions: Species: RAT; for tumour outcome (control, treated, inhibition, significance): Carcinogen: DIETHYLNITROSAMINE, 55-18-5, N-METHYL-N-NITROSOUREA, 684-93-5, N-BUTYL-N-(4-HYDROXYBUTYL)NITROSAMINE, 3817-11-6, DIMETHY, Dose [Inhibitor]: 0, Route [Inhibitor]: ORAL, Strain/Sex: F344/MALE, Dose [Carcinogen]: 100 MG/KG BW DEN ONCE FOLLOWED BY 20 MG/KG BW MNU 4 TIMES AND 0.05% BBN IN DRINKING WATER DURING FIRST 2 WK THEN 40 MG/K, Promoter: NONE USED

CCCCCCOc1cc(C)c(O)c(C)c1C
tumour outcome (control, treated, inhibition, significance) (1% IN THE DIET FOR 24 WK BEGINNING 1 DAY POST CARCINOGEN TREATMENT (STUDY DURATION: 28 WK), Target Tissue: Type of Lesion: SMALL INTESTINE: ADENOMA): 33%, 0%, 100%, p<0.05 | tumour outcome (control, treated, inhibition, significance) (1% IN THE DIET FOR 24 WK BEGINNING 1 DAY POST CARCINOGEN TREATMENT (STUDY DURATION: 28 WK), Target Tissue: Type of Lesion: THYROID: CARCINOMA): 7%, 8%, -14%, not significant | tumour outcome (control, treated, inhibition, significance) (1% IN THE DIET FOR 24 WK BEGINNING 1 DAY POST CARCINOGEN TREATMENT (STUDY DURATION: 28 WK), Target Tissue: Type of Lesion: URINARY BLADDER: CARCINOMA): 7%, 0%, 100%, not significant | tumour outcome (control, treated, inhibition, significance) (1% IN THE DIET FOR 24 WK BEGINNING 1 DAY POST CARCINOGEN TREATMENT(STUDY DURATION: 28 WK), Target Tissue: Type of Lesion: SMALL INTESTINE: CARCINOMA): 7%, 0%, 100%, not significant | tumour outcome (control, treated, inhibition, significance) (1% IN THE DIET FOR 30 D BEGINNING 1 D PRIOR TO CARCINOGEN TREATMENT (STUDY DURATION: 28 WK), Target Tissue: Type of Lesion: URINARY BLADDER: PAPILLOMA): 7%, 21%, -200%, not significant | tumour outcome (control, treated, inhibition, significance) (1% IN THE DIET FOR 30 D BEGINNING 1 DAY PRIOR TO CARCINOGEN TREATMENT (STUDY DURATION: 28 WK), Target Tissue: Type of Lesion: LARGE INTESTINE: CARCINOMA): 7%, 0%, 100%, not significant | tumour outcome (control, treated, inhibition, significance) (1% IN THE DIET FOR 30 D BEGINNING 1 DAY PRIOR TO CARCINOGEN TREATMENT (STUDY DURATION: 28 WK), Target Tissue: Type of Lesion: SMALL INTESTINE: ADENOMA): 33%, 14%, 58%, not significant | tumour outcome (control, treated, inhibition, significance) (1% IN THE DIET FOR 30 D BEGINNING 1 DAY PRIOR TO CARCINOGEN TREATMENT (STUDY DURATION: 28 WK), Target Tissue: Type of Lesion: THYROID: CARCINOMA): 7%, 0%, 100%, not significant | tumour outcome (control, treated, inhibition, significance) (1% IN THE DIET FOR 30 D BEGINNING 1 DAY PRIOR TO CARCINOGEN TREATMENT (STUDY DURATION: 28 WK), Target Tissue: Type of Lesion: URINARY BLADDER: CARCINOMA): 7%, 14%, -100%, not significant | outcome (Carcinogen: SUBCUTANEOUS, Dose [Inhibitor]: 1,2-DIMETHYLHYDRAZINE [540-73-8], Route [Inhibitor]: 0.125% IN DIET FOR 32 WK BEGINNING 1 WK POST LAST CARCINOGEN DOSE (STUDY DURATION: 36 WK), Strain/Sex: ORAL, Target Tissue: Type of Lesion: 20/21 (95%), 21/21 (100%), -5%, NOT SIGNIFICANT, Dose [Carcinogen]: 2-AMINO-1-METHYL-6-PHENYLIMIDAZO[4,5-B]PYRIDINE [105650-23-5], Promoter: ORAL): 9.1, 6.2, 32%, not significant
